Reference: US4570005A, “Process for the preparation of 2-arylpropyl ether or thioether derivatives” (priority 1980, dated 1986)

Key:
[1] = test system: tobacco cutworm; assay: Test 2: Tobacco Cutworm Larva Dipping Test, mortality after 24 hours; assay type: in vivo; details: 24 hours
Outline: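 Second- and fifth-instar larvae dipped 5 s in a water dilution of an emulsifiable concentrate at 100 or 20 ppm, blotted, then held on artificial diet at 25° C. Dead and living larvae counted after 24 hours; mortality averaged over three cups.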

[2] = test system: German cockroach; assay: Test 7: Effect on German Cockroach; assay type: in vivo; details: Blattella germanica, male adults, agonized and killed after 24 hours, read-out: Mortality (%); for mortality at 10 mg/m2: 10 mg/m^2; for mortality at 50 mg/m2: 50 mg/m^2
Outline: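 Petri dish floors were treated with 50 or 10 mg/m2 of compound (diluted emulsifiable concentrate) and air-dried. Ten male adult German cockroaches per dish were held at 25° C. Agonized and dead insects were counted after 24 hours, averaging two dishes.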

[3] = Test 9: Toxicity Test (acute oral toxicity, mice); details: mouse, in vivo, po
Description: A predetermined amount of a solution or suspension of a test compound in corn oil was orally administered to male mice having a body weight of 19 to 23 g (0.2 ml per 10 g of the body weight). After 7 days, the number of killed mice was counted and the influences on the mice were examined.

[4] = test system: green peach aphid; assay: Test 5: Effect on Green Peach Aphid; assay type: in vivo; details: Myzus persicae; 100 ppm; mortality class; 24 hours; read-out: Insecticidal Activity
Outline: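 Eggplant seedlings with 3–4 leaves were infested with aphids and sprayed with a 100 ppm aqueous dilution of an emulsifiable concentrate, then kept in a glasshouse. Living insects were counted after 24 h. Mortality is averaged over three pots and graded A (>95%), B (80–95%), C (50–80%) or D (<50%).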

[5] = test system: diamond back moth; assay: Test 4: Effect on Diamond Back Moth; assay type: in vivo; details: Plutella, third-instar larvae, 24 hours, read-out: Mortality (%)
Outline: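 Compound formulated as an emulsifiable concentrate, diluted in water to 100 or 20 ppm and sprayed at 3 ml per cup onto cabbage leaves holding 10 third-instar larvae. Mortality counted after 24 hours; mean of three cups.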

[6] = test system: sensitive green rice leafhopper (collected at Chigasaki); assay: whole plant or invertebrate; assay type: in vivo; details: Nephotettix cincticeps, sensitive female adults, 24 hours, read-out: Mortality (%), Green Rice Leafhopper Collected at Chigasaki
Outline: (§1)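 Emulsifiable concentrate diluted to 100 or 20 ppm was sprayed, 3 ml per pot, onto hydroponic rice seedlings at 2–3 leaves. After air-drying, 10 female adults of the Nakagawara (resistant) or Chigasaki (sensitive) strain were released per caged pot. Mortality was counted at 24 h and averaged over three pots.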

[7] = test system: two-spotted spider mite; assay: Test 6: Effect on Two-Spotted Spider mite Adults; assay type: in vivo; details: Tetranychus urticae; 100 ppm; adults; 24 hours; 25° C; read-out: Mortality (%)
Description: To a mixture of 20 parts of the compound of the present invention and 20 parts of Sorpol SM-200 (registered tradename for the product supplied by Toho Chemical Industrial Co., Ltd.) was added 60 parts of xylol, and the mixture was suffciently blended. The obtained emulsifiable concentrate was diluted at a predetermined concentration with distilled water, and the obtained dilution was used.
A kidney bean leaf disc perforated with a cork borer (15 mm in diameter) was placed on water-impregnated absorbent cotton (2 cm×2 cm), and 10 adults of two-spotted spider mite were set free. A chemical dilution having a concentration of 100 ppm was applied with an applicator in an amount of 3 ml.
The leaf disc-placed absorbent cotton was placed in a thermostat chamber maintained at 25° C. After 24 hours, the number of killed adults was counted and the mortality was calculated. The test was made on three leaf discs and the average value was calculated.

[8] = test system: resistant green rice leafhopper (collected at Nakagawara); assay: Test 3: Effect on Resistant Green Rice Leafhopper (collected at Nakagawara); assay type: in vivo, Nephotettix cincticeps Uhler (Green rice leafhopper); details: Nephotettix cincticeps, 24 h, read-out: Mortality (%), Green Rice Leafhopper Collected at Nakagawara
Outline: as §1

[9] = Test 8: Fish Toxicity; assay type: in vivo; details: carp, water; concentration at which 1/2 of the test fishes were killed within 48 hours; read-out: Fish Toxicity, TLm48
Description: A water tank having a width of 60 cm, a length of 30 cm and a height of 40 cm was filled with water, and 10 yearling carps having a body length of about 5 cm were set free in the tank and adapted to the environment in the tank. A test compound was applied so that the concentration in water was 10, 1 or 0.1 ppm. After 48 hours, the numbers of killed and living carps were counted and the influences on the fishes were examined.

[10] = test system: tobacco cutworm; assay: Test 1: Effect on Tobacco Cutworm (leaf immersion), mortality after 24 hours; assay type: in vivo; details: second-instar larvae, 25° C
Outline: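 Sweet-potato leaves dipped 10 s in emulsifiable concentrate diluted to 100 or 20 ppm, air-dried, then exposed to second-instar larvae at 25 °C. Mortality counted after 24 h, averaged over three cups.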

[11] = fifth-instar larvae, read-out: Motality (%), Fifth-Instar Larvae
[12] = second-instar larvae, read-out: Motality (%), Second-Instar Larvae

Row | Compound | mortality at 20 ppm [1, 11] [%] | mortality at 20 ppm [1, 12] [%] | mortality at 100 ppm [1, 11] [%] | mortality at 100 ppm [1, 12] [%] | mortality at 10 mg/m2 [2] [%] | mortality at 50 mg/m2 [2] [%] | LD50 at 168 h [3] [mg/kg] | mortality at 100 ppm [4] [%] | mortality at 20 ppm [5] [%] | mortality at 100 ppm [5] [%] | mortality at 20 ppm [6] [%] | mortality at 100 ppm [6] [%] | mortality at 100 ppm [7] [%] | mortality at 20 ppm [8] [%] | mortality at 100 ppm [8] [%] | LC50 at 48 h [9] [µg/mL] | mortality at 20 ppm [10] [%] | mortality at 100 ppm [10] [%]
1 | CC(C)Oc1ccc(C(C)(C)COCc2cccc(Oc3ccccc3)c2)cc1 [Compound 59, 3-Phenoxybenzyl 2-(4-isopropoxyphenyl)-2-methylpropyl ether] | 100 | 100 | 100 | 100 | 100 | 100 | > 500 | > 95 | 85 | 100 | 100 | 100 | 100 | 100 | 100 | – | – | –
2 | CC(C)(COCc1cccc(Oc2ccc(F)cc2)c1)c1ccc(Cl)cc1 [Compound 6, 3-(4-Fluorophenoxy)benzyl 2-(4-chlorophenyl)-2-methylpropyl ether] | 100 | 100 | 100 | 100 | 100 | 100 | > 500 | > 95 | 100 | 100 | 100 | 100 | 100 | 100 | 100 | > 10 | 100 | 100
3 | CCCCOc1ccc(C(C)(C)COCc2cccc(Oc3ccccc3)c2)cc1 [Compound 69, 3-Phenoxybenzyl 2-[4-(n-butoxy)phenyl]-2-methylpropyl ether] | – | – | – | – | – | – | > 500 | > 95 | – | – | – | – | 60 | – | – | > 1 | – | –
4 | CC(C)(CSCc1cccc(Oc2ccccc2)c1)c1ccc(Cl)cc1 [Compound 20, 3-Phenoxybenzyl 2-(4-chlorophenyl)-2-methylpropyl thioether] | 80 | 90 | 100 | 100 | – | – | > 500 | > 95 | 100 | 100 | 50 | 100 | 100 | 80 | 100 | > 10 | 100 | 100
5 | COc1ccc(Oc2cccc(COCC(C)(C)c3ccc(Cl)c(Cl)c3)c2)cc1 [Compound 41, 3-(4-methoxyphenoxy)benzyl 2-(3,4-dichlorophenyl)-2-methylpropyl ether] | – | – | – | – | 100 | 100 | > 500 | > 95 | – | – | 100 | 100 | 100 | 100 | 100 | > 10 | – | –
6 | CC(C)(COCc1cccc(Oc2ccccc2)c1)c1ccccc1 [Compound 5, 3-Phenoxybenzyl 2-phenyl-2-methylpropyl ether] | – | – | – | – | 80 | 100 | > 500 | > 95 | – | – | 100 | 100 | 100 | 100 | 100 | – | – | –
7 | CC(C)(COCc1cccc(Oc2ccccc2)c1)c1ccc(OC(F)F)cc1 [Compound 18, 3-phenoxybenzyl 2-(4-difluoromethoxyphenyl)-2-methylpropyl ether] | 100 | 100 | 100 | 100 | 100 | 100 | > 500 | > 95 | 100 | 100 | 100 | 100 | 100 | 100 | 100 | – | 100 | 100
8 | COc1ccc(C(C)(C)COCc2cccc(Oc3ccccc3)c2)cc1 [Compound 1, 3-Phenoxybenzyl 2-(4-methoxyphenyl)-2-methyl propyl ether] | – | – | – | – | 100 | 100 | > 500 | 80 to 95 | – | – | 100 | 100 | 100 | 100 | 100 | > 10 | – | –
9 | CC(C)(COCc1cccc(Oc2ccccc2)c1)c1ccc(Cl)c(Cl)c1 [Compound 48, 3-Phenoxybenzyl 2-(3,4-dichlorophenyl)-2-methylpropyl ether] | 60 | 70 | 70 | 90 | 100 | 100 | > 500 | > 95 | 100 | 100 | 100 | 100 | 100 | 100 | 100 | > 10 | 80 | 100
10 | CC(C)(COCc1cccc(Oc2ccccc2)c1)c1ccc2c(c1)OCO2 [Compound 7, 3-Phenoxybenzyl 2-(3,4-methylenedioxyphenyl)-2-methylpropyl ether] | 50 | 60 | 100 | 100 | 100 | 100 | > 500 | > 95 | 80 | 100 | 90 | 100 | 100 | 100 | 100 | > 10 | 80 | 100
11 | CC(C)(C)c1ccc(C(C)(C)COCc2cccc(Oc3ccccc3)c2)cc1 [Compound 105, 3-Phenoxybenzyl 2-(4-tert-butylphenyl)-2-methylpropyl ether] | – | – | – | – | – | – | > 500 | 80 to 95 | – | – | – | – | 100 | – | – | > 1 | – | –
12 | CC(C)C(COCc1cccc(Oc2ccccc2)c1)c1ccc(Cl)cc1 (stereo not shown) [Comparative Compound (b), reference compound] | – | – | 0 | 0 | – | – | – | < 50 | 10 | 30 | – | – | 20 | – | – | – | – | –
